What was measured:
clinical = details: human, in vivo, po, 105 mg
[1] = Part 3: randomized, double-blind, placebo-controlled multiple-dose trial of S- and R-bupropion with pharmacokinetic sampling (plasma concentrations Day 7); format: in vivo; details: human, 105 mg BID SR tablets oral, fasting, Day 7 at 3-4 hours after dosing, n = 15
Method: A randomized, double-blind, multiple-dose, placebo-controlled, parallel group trial was conducted to examine the safety and tolerability of the pure S-and R-enantiomers of bupropion, with pharmacokinetic sampling.

| AUC(0-t) at 12 h (clinical) [ng·h/mL] | Mean concentration of bupropion [1] [ng/mL] | SMILES |
| --- | --- | --- |
| 793 | 170.9 | C[C@H](NC(C)(C)C)C(=O)c1cccc(Cl)c1 [S-bupropion, (S)-bupropion] |
| – | 15.1 | C[C@@H](NC(C)(C)C)C(=O)c1cccc(Cl)c1 [R-bupropion, (R)-bupropion, reference compound] |

Source: patent publication US20250127732A1 (AXSOME THERAPEUTICS, INC., priority 2018, published 2025)
